Each structure is given as a SMILES string. Numbers after ± are expanded uncertainties.

This data set in a line: refractive index (Na D-line) (dimensionless). Particulars: 298.15 K; 101.33 kPa; Liquid; Standard Abbe refractometry.
The term refractive index denotes the speed of light in vacuum divided by its phase velocity in the sample. For the compound `CCCCCC` [hexane], the refractive index is given as 1.3722 ± 0.0007.
Turning to `COCCOC` [1,2-dimethoxyethane], the refractive index was 1.3783 ± 0.0008.
In the case of `C1CCCCC1` [cyclohexane], the refractive index is recorded as 1.4236 ± 0.0008.
Turning to `Cc1ccccc1` [toluene], the refractive index turned out to be 1.4941 ± 0.0008.

These data come from the NIST ThermoML archive (doi:10.1021/je030165y).
